Data as given in US12083084B2, “Method for enhancing energy production and metabolism in cells” (REPLICON HEALTH OY, priority 2013, dated 2024).

Legend:
[1] = Blood pressure (hypertension) in study subjects; format: in vivo, human
Experimental: FIG. 12 depicts that hypertension was measured in two study subjects out of eight (subject 4 and 5). Subject 5 was the only person with clearly elevated blood pressure. (For other study subjects 1-3 and 6-8 blood pressures were at normal level.) Subject 5 blood pressure was first observed without any treatment for 6 days (from 20 of Jan. to 26 of Jan. 2013). After that subject 5 received twice a day 4 mg/kg of DGA mixed to water for 10 days. […] Subject 4 received 1×4 mg/k/day of DGA for 3 weeks.
FIG. 12a: Hypertension, subject 5 (averages of three measurements. DGA dosing started on 26th of January and ended on 3rd of February. Dose 2×4 mg/kg/day).
FIG. 12b: Hypertension, subject 4 (averages of three measurements. Subject 4 received 1×4 mg/kg/day of DGA for 3 weeks).

[2] = 400 m running experiment; format: in vivo, human
Experimental: Two healthy male volunteers S1 and S3 from Example 2.1 participated in 400 m running experiment with 4 day administration of DGAcs and without it. The experiments were done at 2-3 pm in the afternoon. In DGA experiment additional dose of DGAcs (5 mg/kg) was taken before lunch at 11 am, and lunch was eaten at 12 am. […] The length of the 400 m exercise at full speed was too much especially for S1. […] This difference was striking especially for S3 and can be as a result in decreased acidosis.

[3] = system: peripheral leukocytes; assay: Gene expression from in vivo blood samples (TRAC); parameters: species or system human; settings: for AOX1 gene expression, Change % / CYP1A2 gene expression, Change % / CYP2B6 gene expression, Change % / CYP2C9 gene expression, Change % / CYP3A4 gene expression, Change % / G6PD gene expression, Change % / GPD2 gene expression, Change % / GRHPR gene expression, Change % / HO-1 gene expression, Change % / MT-CO1 gene expression, Change % / MT-CYB gene expression, Change % / PGC-1a gene expression, Change %: S1 and S9 combined, vs control
Experimental: In the above 4.5 day experiment samples of peripheral leukocytes were collected from S1 and S9 in fasting condition (0 h), and also 1 hour (1 h) after taking 75 grams of glucose (Glutole, Biofile Pharma, 330 ml) for glucose tolerance test. Additional gene expression measurement was done from a separate 12 hour treatment for S1 and S9. In the 12 h test only two last doses of DGAcs were administered, first dose 12 h earlier than the blood sample, and the last/second dose 2.5 h earlier in the same morning (like in 4.5 day experiment). For the statin group, S10 and S11, only one gene expression measurement was done in two hours after the fasting blood sample. Leukocytes were immediately separated from blood samples, and after separation immediately lysed by stop solution and stored in freezer according to instructions by the service provider.
For S1 and S9 there were altogether 4 measurement points for gene expression, and only 3 repeats for each measurement. Results are presented in Table 6 below; changes of gene expressions compared to the control from peripheral leukocytes are presented. The Gene Expression analyses was conducted using TracTechnology by PlexPress Ltd in Helsinki. The TRAC data presented in Table 6 has been generated according to process instructions with quality tested instruments and reagents. PlexPress Quality Management System is set up according to the ISO 9001 standard. P-values are from t-distribution of a one sided test of deviation from control average, and are presented only when below 10%.

[4] = 3 week ad libitum feeding study, food intake and body weight; format: in vivo, rat
Experimental: In this in vivo experiment 45 rats (24 males and 21 females) were tested in Finnish National Institute of Health. Used DGAcs doses were high compared to human trials ranging between 100-1000 mg/kg/day, but on the other hand the metabolism of rats is much faster than in humans and thus the effective doses for rats can be clearly higher than for humans. In some experiments even 20-50 times higher compared to humans in vivo have been reported in literature. Thus this experiment can give indication also for human use. The animals were kept under controlled conditions, with the temperature set from 20° C. to 21° C., the humidity at 47.6%, and a 12-hour light-dark cycle (lights on at 6:00 am). In this ad libitum feeding study the DGAcs was mixed in the diet for the whole experimental period (3 weeks). The animals were divided into 4 groups, which received 0 (zero control), 2, 10, and 20 g glycerate per kilogram of diet. The average DGAcs consumption was 0.1, 0.5, and 1.0 g/kg per day, respectively, as calculated based on weekly food consumption. The animals experimented were 3 to 5 months old AA rats. The animals were given water and a standard laboratory feed (SDS RM1) ad libitum for 3 weeks. In the experiment the development of weights of rats receiving DGAcs, and the control were measured, as well as the food consumption during the experiment and change in the body weight. Males and females were separated resulting altogether to 8 groups with 5-6 animals in each.

[5] = 12 hour + 0 h test (two doses, fasting)
[6] = 12 hour + 1 h test (1 h after 75 g glucose)
[7] = 4.5 day + 1 h test (1 h after 75 g glucose)

O=C(O)[C@H](O)CO [DGA, D-glyceric acid]
blood pressure ([1]; subject 4, 1×4 mg/kg/day for 3 weeks): declined also somewhat | diastolic blood pressure after treatment ([1]; subject 5, clearly elevated blood pressure (102 or 104 before), twice a day for 10 days): ~90 | systolic blood pressure after treatment ([1]; subject 5, clearly elevated blood pressure (roughly 180 before), twice a day for 10 days): ~160 | readiness to resume other physical exercise after 400 m run ([2]; S1 and S3, qualitative): much more ready to resume other physical exercise | 400 m running times, control vs DGA ([2]; S3, 4 day administration + 5 mg/kg before lunch): no significant differences

O.O.O=C([O-])[C@H](O)CO.O=C([O-])[C@H](O)CO.[Ca+2] [DGAcs, D-glyceric acid, calcium salt dehydrate]
AOX1 gene expression, Change % [3, 5]: −6% | CYP1A2 gene expression, Change % [3, 5]: 100% | CYP2B6 gene expression, Change % [3, 5]: −14% | CYP2C9 gene expression, Change % [3, 5]: 8% | CYP3A4 gene expression, Change % [3, 5]: −17% | G6PD gene expression, Change % [3, 5]: 3% | GPD2 gene expression, Change % [3, 5]: 24% | GRHPR gene expression, Change % [3, 5]: −26% | HO-1 gene expression, Change % [3, 5]: −31% | MT-CO1 gene expression, Change % [3, 5]: −10% | MT-CYB gene expression, Change % [3, 5]: −2% | PGC-1a gene expression, Change % [3, 5]: −3% | AOX1 gene expression, Change % [3, 6]: 8% | CYP2B6 gene expression, Change % [3, 6]: 8% | CYP2C9 gene expression, Change % [3, 6]: 18% | CYP3A4 gene expression, Change % [3, 6]: −45% | G6PD gene expression, Change % [3, 6]: 18% | GPD2 gene expression, Change % [3, 6]: 23% | GRHPR gene expression, Change % [3, 6]: 6% | HO-1 gene expression, Change % [3, 6]: −54% | MT-CO1 gene expression, Change % [3, 6]: 4% | MT-CYB gene expression, Change % [3, 6]: 2% | PGC-1a gene expression, Change % [3, 6]: −21% | CYP1A2 gene expression, Change % ([3]; 4.5 day + 0 h test (fasting)): 62% | CYP2B6 gene expression, Change % ([3]; 4.5 day + 0 h test (fasting)): 73% | CYP2C9 gene expression, Change % ([3]; 4.5 day + 0 h test (fasting)): 0% | CYP3A4 gene expression, Change % ([3]; 4.5 day + 0 h test (fasting)): 67% | G6PD gene expression, Change % ([3]; 4.5 day + 0 h test (fasting)): 9% | GPD2 gene expression, Change % ([3]; 4.5 day + 0 h test (fasting)): 31% | GRHPR gene expression, Change % ([3]; 4.5 day + 0 h test (fasting)): 70% | HO-1 gene expression, Change % ([3]; 4.5 day + 0 h test (fasting)): 82% | MT-CO1 gene expression, Change % ([3]; 4.5 day + 0 h test (fasting)): 24% | MT-CYB gene expression, Change % ([3]; 4.5 day + 0 h test (fasting)): 22% | CYP1A2 gene expression, Change % [3, 7]: 14% | CYP2B6 gene expression, Change % [3, 7]: 147% | CYP2C9 gene expression, Change % [3, 7]: 46% | CYP3A4 gene expression, Change % [3, 7]: 69% | G6PD gene expression, Change % [3, 7]: −13% | GPD2 gene expression, Change % [3, 7]: 0% | GRHPR gene expression, Change % [3, 7]: 100% | HO-1 gene expression, Change % [3, 7]: 110% | MT-CO1 gene expression, Change % [3, 7]: 23% | MT-CYB gene expression, Change % [3, 7]: 21% | PGC-1a gene expression, Change % [3, 7]: 30% | CYP3A4 gene expression vs control ([3]; S10, statin group): statistically significantly up regulated | increase in HO-1 gene expression ([3]; S10, statin group (halved dose of Simvastatin), 4.5 day): 160% | AOX1 gene expression increased by ([3]; S10, statin group, 4.5 day panel): 56% | increase in food intake ([4]; DGAcs groups, males and females): 2.5-4% | average weight change compared to control ([4]; female rats, 3 weeks): +0.2% | average weight increasing compared to control ([4]; female rats, 3 weeks): 0.6 grams | food intake higher compared to the control ([4]; female rats, DGAcs groups combined, 3 weeks): 2.5% | food intake higher compared to the control ([4]; male rats, DGAcs groups combined (0.1, 0.5, 1.0 g/kg per day), 3 weeks): 3.7% | amount of unexplained energy consumption ([4]; males): roughly 5%
